Source: publication PMC6691788, “Design and synthesis of phthalazine-based compounds as potent anticancer agents with potential antiangiogenic activity via VEGFR-2 inhibition” (Journal of Enzyme Inhibition and Medicinal Chemistry, 2019)

Tests used:
CCRF-CEM = assay: NCI 60 cell panel SRB screen; format: cell-based, human; settings: for TGI / GI50 / CC50: 5 log dose; for GI50 / CC50 / activity at 10 µM: Homo sapiens; for CC50: 48 h, read-out: LC50 (the source's name); for activity at 10 µM: single dose 10 μM, read-out: percent cell growth promotion
EKVX = assay: NCI 60 cell panel SRB screen; format: cell-based, human; settings: for GI50 / IC (TGI) / LC50: Homo sapiens, 5 log dose; for LC50: 48 h; for percent cell growth promotion: single dose 10 μM
HOP-92 = assay: NCI 60 cell panel SRB screen; format: cell-based; settings: Homo sapiens; for GI50 / IC (TGI) / CC50: HOP-92, 5 log dose; for CC50: 48 h, read-out: LC50 (the source's name); for activity at 10 µM: HOP-92, single dose 10 μM, read-out: percent cell growth promotion
NCI-H460 = assay: NCI 60 cell panel SRB screen; format: cell-based; settings: Homo sapiens; for GI50 / IC (TGI) / LC50 (concentration causing 50% cell kill): NCI-H460, 5 log dose; for LC50 (concentration causing 50% cell kill): 48 h; for activity at 10 µM: NCI-H460, single dose 10 μM, read-out: percent cell growth promotion
SF-539 = assay: NCI 60 cell panel SRB screen; format: cell-based, human; settings: for GI50 / IC (TGI) / CC50: Homo sapiens, SF-539, 5 log dose; for CC50: 48 h, read-out: LC50 (the source's name); for percent cell growth promotion: SF-539, single dose 10 μM
LOX IMVI = assay: NCI 60 cell panel SRB screen; format: cell-based; settings: Homo sapiens; for CC50: 5 log dose, 48 h, read-out: LC50 (the source's name); for IC (TGI): read-out: TGI; for activity at 10 µM: read-out: percent cell growth promotion
SK-MEL-2 = assay: NCI 60 cell panel SRB screen; format: cell-based; settings: for GI50 / IC (TGI) / CC50: Homo sapiens; for IC (TGI): read-out: TGI; for CC50: SK-MEL-2, 5 log dose, 48 h, read-out: LC50 (the source's name); for percent cell growth promotion: SK-MEL-2, single dose 10 μM
SK-MEL-5 = assay: NCI 60 cell panel SRB screen; format: cell-based; settings: Homo sapiens; for GI50: SK-MEL-5; for IC (TGI): SK-MEL-5, read-out: TGI; for activity at 10 µM: SK-MEL-5, read-out: percent cell growth promotion; for CC50: SK-MEL-5, 5 log dose, 48 h, read-out: LC50 (the source's name)
UACC-257 = assay: NCI 60 cell panel SRB screen; format: cell-based; settings: Homo sapiens; for GI50: UACC-257; for IC (TGI): UACC-257, read-out: TGI; for activity at 10 µM: UACC-257, read-out: percent cell growth promotion; for CC50: UACC-257, 5 log dose, 48 h, read-out: LC50 (the source's name)
OVCAR-3 = assay: NCI 60 cell panel SRB screen; format: cell-based; settings: Homo sapiens; for GI50 / IC (TGI) / CC50: OVCAR-3, 5 log dose; for CC50: 48 h, read-out: LC50 (the source's name); for activity at 10 µM: OVCAR-3, single dose 10 μM, read-out: percent cell growth promotion
OVCAR-4 = assay: NCI 60 cell panel SRB screen; format: cell-based; settings: Homo sapiens; for GI50 / IC (TGI) / CC50: OVCAR-4, 5 log dose; for CC50: 48 h, read-out: LC50 (the source's name); for activity at 10 µM: OVCAR-4, single dose 10 μM, read-out: percent cell growth promotion
SK-OV-3 = assay: NCI 60 cell panel SRB screen; format: cell-based; settings: Homo sapiens; for GI50 / IC (TGI) / CC50: SK-OV-3, 5 log dose; for CC50: 48 h, read-out: LC50 (the source's name); for activity at 10 µM: SK-OV-3, single dose 10 μM, read-out: percent cell growth promotion
SN12C = assay: NCI 60 cell panel SRB screen; format: cell-based; settings: Homo sapiens; for GI50 / IC (TGI) / CC50: 5 log dose; for CC50: 48 h, read-out: LC50 (the source's name); for activity at 10 µM: single dose 10 μM, read-out: percent cell growth promotion
VEGFR-2 tyrosine kinase = molecular target: T1, VEGFR-2 tyrosine kinase (Homo sapiens, UniProt P35968); assay: In vitro VEGFR-2 tyrosine kinase assay (BPS Bioscience); format: biochemical; settings: read-out: VEGFR-2 % inhibition; 10 μM concentration
T1 construct: purchased BPS Bioscience 40301
In short: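 For IC50, ADP formation after a 30-min 30 °C reaction was detected by ADP-Glo luminescence in duplicate, blank-subtracted and fitted as log inhibitor versus normalised response. The 10 µM single-dose test instead measured remaining ATP (Kinase-Glo Plus) after 40 min at 30 °C with poly(Glu,Tyr) substrate, 10 μM ATP, pH 7.4, 1% DMSO.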

full NCI 60 cell panel = assay: NCI 60 cell panel SRB screen, whole panel; format: cell-based, human; settings: Homo sapiens, 60 cell, NCI 5-log dose, full 60 cell panel; read-out: GI50 values, range over the tested cell lines

T1 sequence (P35968 20-1356): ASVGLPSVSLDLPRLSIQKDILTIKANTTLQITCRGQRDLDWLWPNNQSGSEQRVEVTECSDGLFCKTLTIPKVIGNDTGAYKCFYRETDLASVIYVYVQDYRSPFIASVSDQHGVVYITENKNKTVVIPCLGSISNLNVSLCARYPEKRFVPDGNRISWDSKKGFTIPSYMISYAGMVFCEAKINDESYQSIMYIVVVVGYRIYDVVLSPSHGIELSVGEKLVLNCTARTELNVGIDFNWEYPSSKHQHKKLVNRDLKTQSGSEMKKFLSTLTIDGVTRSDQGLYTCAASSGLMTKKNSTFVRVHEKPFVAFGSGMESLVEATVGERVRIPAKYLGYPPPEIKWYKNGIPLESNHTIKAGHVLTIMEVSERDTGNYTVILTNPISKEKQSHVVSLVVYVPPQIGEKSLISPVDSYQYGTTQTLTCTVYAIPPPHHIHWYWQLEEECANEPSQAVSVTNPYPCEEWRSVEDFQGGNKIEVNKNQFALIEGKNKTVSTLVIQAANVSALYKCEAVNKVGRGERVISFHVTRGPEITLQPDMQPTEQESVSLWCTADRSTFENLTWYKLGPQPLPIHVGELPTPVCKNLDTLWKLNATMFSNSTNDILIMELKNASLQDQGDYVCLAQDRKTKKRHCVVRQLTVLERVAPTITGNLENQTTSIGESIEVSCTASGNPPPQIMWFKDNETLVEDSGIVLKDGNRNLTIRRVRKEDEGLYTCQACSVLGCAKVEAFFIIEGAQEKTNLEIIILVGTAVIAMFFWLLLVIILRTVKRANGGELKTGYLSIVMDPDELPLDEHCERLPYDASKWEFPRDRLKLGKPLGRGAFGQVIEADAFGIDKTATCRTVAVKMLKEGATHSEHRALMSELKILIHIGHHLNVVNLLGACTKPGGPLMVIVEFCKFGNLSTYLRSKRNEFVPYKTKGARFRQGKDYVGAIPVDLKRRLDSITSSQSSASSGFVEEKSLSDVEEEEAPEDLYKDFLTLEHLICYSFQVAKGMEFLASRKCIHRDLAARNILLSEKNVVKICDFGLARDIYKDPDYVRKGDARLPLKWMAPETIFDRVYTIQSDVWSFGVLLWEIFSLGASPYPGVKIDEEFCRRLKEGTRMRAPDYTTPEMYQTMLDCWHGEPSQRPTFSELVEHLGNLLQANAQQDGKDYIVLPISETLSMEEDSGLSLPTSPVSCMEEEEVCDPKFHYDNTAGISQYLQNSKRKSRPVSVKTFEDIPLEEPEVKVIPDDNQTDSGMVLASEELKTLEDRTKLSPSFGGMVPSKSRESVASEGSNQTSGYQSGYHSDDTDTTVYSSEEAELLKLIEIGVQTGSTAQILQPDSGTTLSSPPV

COc1cccc(NCc2nnc(Nc3ccc(Cl)cc3)c3ccccc23)c1 [Compound 16d, N-(4-Chlorophenyl)-4-((3-methoxyphenylamino)methyl)phthalazin-1-amine]
TGI (CCRF-CEM): 13.4 µM
GI50 (CCRF-CEM): 2.73 µM
CC50 (CCRF-CEM): > 25 µM
activity at 10 µM (CCRF-CEM): -4.42%
GI50 (EKVX): 0.58 µM
IC (TGI) (EKVX): 6.4 µM
LC50 (EKVX): > 25 µM
percent cell growth promotion (EKVX): -0.28%
GI50 (HOP-92): 0.32 µM
IC (TGI) (HOP-92): 2.91 µM
CC50 (HOP-92): > 25 µM
activity at 10 µM (HOP-92): -32.8%
GI50 (NCI-H460): 2.69 µM
IC (TGI) (NCI-H460): 7.15 µM
LC50 (concentration causing 50% cell kill) (NCI-H460): 19 µM
activity at 10 µM (NCI-H460): 0.1%
GI50 (SF-539): 3.07 µM
IC (TGI) (SF-539): 6.56 µM
CC50 (SF-539): 14 µM
percent cell growth promotion (SF-539): -10.19%
GI50 (LOX IMVI): 1.11 µM
CC50 (LOX IMVI): 12.8 µM
IC (TGI) (LOX IMVI): 4.83 µM
activity at 10 µM (LOX IMVI): -58.7%
GI50 (SK-MEL-2): 0.7 µM
IC (TGI) (SK-MEL-2): 3.98 µM
CC50 (SK-MEL-2): 11 µM
percent cell growth promotion (SK-MEL-2): -34.44%
GI50 (SK-MEL-5): 0.81 µM
IC (TGI) (SK-MEL-5): 4.18 µM
activity at 10 µM (SK-MEL-5): -98.5%
CC50 (SK-MEL-5): 10.2 µM
GI50 (UACC-257): 2.04 µM
IC (TGI) (UACC-257): 5.28 µM
activity at 10 µM (UACC-257): -39.7%
CC50 (UACC-257): 11.6 µM
GI50 (OVCAR-3): 1.64 µM
IC (TGI) (OVCAR-3): 10 µM
CC50 (OVCAR-3): > 25 µM
activity at 10 µM (OVCAR-3): -53.6%
GI50 (OVCAR-4): 1.33 µM
IC (TGI) (OVCAR-4): 17.6 µM
CC50 (OVCAR-4): > 25 µM
activity at 10 µM (OVCAR-4): 17.2%
GI50 (SK-OV-3): 1.13 µM
IC (TGI) (SK-OV-3): 8.19 µM
CC50 (SK-OV-3): > 25 µM
activity at 10 µM (SK-OV-3): -11.9%
GI50 (SN12C): 2.52 µM
IC (TGI) (SN12C): 11 µM
CC50 (SN12C): > 25 µM
activity at 10 µM (SN12C): 14.5%
inhibition at 10 µM (VEGFR-2 tyrosine kinase): 24%
GI50 (full NCI 60 cell panel): 0.15 to 8.41 µM

Clc1ccc(Nc2nnc(COc3ccccc3)c3ccccc23)cc1 [Compound 17a, N-(4-Chlorophenyl)-4-(phenoxymethyl)phthalazin-1-amine]
TGI (CCRF-CEM): 14.2 µM
GI50 (CCRF-CEM): 2.8 µM
CC50 (CCRF-CEM): > 25 µM
activity at 10 µM (CCRF-CEM): 1.06%
GI50 (EKVX): 0.67 µM
IC (TGI) (EKVX): 7.32 µM
LC50 (EKVX): > 25 µM
percent cell growth promotion (EKVX): 6.53%
GI50 (HOP-92): 0.33 µM
IC (TGI) (HOP-92): 3.09 µM
CC50 (HOP-92): > 25 µM
activity at 10 µM (HOP-92): -28%
GI50 (NCI-H460): 2.7 µM
IC (TGI) (NCI-H460): 7.12 µM
LC50 (concentration causing 50% cell kill) (NCI-H460): 18.8 µM
activity at 10 µM (NCI-H460): 3.1%
GI50 (SF-539): 3.12 µM
IC (TGI) (SF-539): 7.58 µM
CC50 (SF-539): 18.4 µM
percent cell growth promotion (SF-539): 8.42%
GI50 (LOX IMVI): 1.29 µM
CC50 (LOX IMVI): 11.9 µM
IC (TGI) (LOX IMVI): 4.85 µM
activity at 10 µM (LOX IMVI): -62%
GI50 (SK-MEL-2): 0.97 µM
IC (TGI) (SK-MEL-2): 5.13 µM
CC50 (SK-MEL-2): 15.1 µM
percent cell growth promotion (SK-MEL-2): -26.47%
GI50 (SK-MEL-5): 1.08 µM
IC (TGI) (SK-MEL-5): 4.56 µM
activity at 10 µM (SK-MEL-5): -96.1%
CC50 (SK-MEL-5): 10.8 µM
GI50 (UACC-257): 2.54 µM
IC (TGI) (UACC-257): 5.82 µM
activity at 10 µM (UACC-257): -24.9%
CC50 (UACC-257): 13.4 µM
GI50 (OVCAR-3): 2.87 µM
IC (TGI) (OVCAR-3): 9.8 µM
CC50 (OVCAR-3): > 25 µM
activity at 10 µM (OVCAR-3): -35.1%
GI50 (OVCAR-4): 2.09 µM
IC (TGI) (OVCAR-4): > 25 µM
CC50 (OVCAR-4): > 25 µM
activity at 10 µM (OVCAR-4): 18.1%
GI50 (SK-OV-3): 2.38 µM
IC (TGI) (SK-OV-3): 9.96 µM
CC50 (SK-OV-3): > 25 µM
activity at 10 µM (SK-OV-3): 9.17%
GI50 (SN12C): 2.12 µM
IC (TGI) (SN12C): 8.07 µM
CC50 (SN12C): > 25 µM
activity at 10 µM (SN12C): 17%
inhibition at 10 µM (VEGFR-2 tyrosine kinase): 31%
GI50 (full NCI 60 cell panel): 0.15 to 8.41 µM
